Active and inactive are the calls of the source. No cut-off for these calls is given here.
Key:
Musca domestica [1] = assay: Insecticidal activity against Musca domestica (house fly) assessed as mortality measured per fly; format: functional
Musca domestica [2] = assay: Insecticidal activity against Musca domestica (house fly) assessed as increase in mortality; format: functional, organism-based

COC[C@H]1Oc2cc([C@H]3OC[C@]4(O)[C@@H](Oc5c(OC)cc6c(c5OC)OCO6)OC[C@H]34)c(OC)cc2O[C@@H]1c1ccc2c(c1)OCO2 [(+)-HAEDOXAN A]
LD50 (Musca domestica [1]): 0.00025 µg

CCCC[C@H]1Oc2cc(OC)c([C@H]3OC[C@]4(O)[C@@H](Oc5c(OC)cccc5OC)OC[C@H]34)cc2O[C@@H]1COC (mixture of isomers)
LD50 (Musca domestica [1]): 1 µg

COC[C@H]1Oc2cc([C@H]3OC[C@]4(O)[C@@H](Oc5c(OC)cccc5OC)OC[C@H]34)c(OC)cc2O[C@H]1C (mixture of isomers)
Activity (Musca domestica [2]): inactive

COC[C@H]1Oc2cc([C@H]3OC[C@]4(O)[C@@H](Oc5c(OC)cccc5OC)OC[C@H]34)c(OC)cc2O[C@@H]1C (mixture of isomers)
LD50 (Musca domestica [1]): 1 µg

Reference: ChEMBL document CHEMBL3045076, “Influence on Insecticidal Activity of the 3-(3,4-Methylenedioxyphenyl) Group in the 1,4-Benzodioxanyl Moiety of Haedoxan” (1992)
